Reference: patent US20250295631A1, “NOVEL TREATMENT” (University of Liverpool, priority 2022, published 2025)
Values joined by “and” are separate entries in the source; they are usually repeats but may differ in a detail not shown here. Identical values can stand only once. “Also recorded” adds a separate entry of the source. Like-named read-outs stand apart in the source and are kept apart here. Values belong to the molecule of their own block, whether it stands above or below them.

Columns and labels:
rabbit corneas [1] = assay: Rabbit corneal tensile measurements after in vivo treatment; parameters: species or system New Zealand rabbits; settings: for Percentage Change in Modulus After 3 Days Compared to Control / Percentage Change in Modulus Compared to Control: 0.2M BS^3 for 15 mins; for Percentage Change in Modulus After 3 Days Compared to Control: 3 days after treatment; for Percentage Change in Modulus Compared to Control: 28 days after treatment
Method: (§1) The tissue strip was mounted in the grips of a Univert tensile tester (CellScale, Ontario, Canada) with a 50 N load cell. Tissue was stretched at a rate of 125 μm/s until failure. Data was captured at 1 Hz. Stress-strain curves were plotted and the elastic modulus was determined at a range of strains: 5-10%, 10-15%, 20-25% and 30-35%. Data were trimmed to 3% from the strain at ultimate tensile strain and 6 term polynomial equations we determined from each curve. […] These polynomials represent the stress-stain response of each cornea and were used to create an average stress-strain curve for the samples.
(§2) Male Wistar rats (300 g) and mixed sex New Zealand rabbits (1.5-3 kg), both specific-antigen free, were ordered from Charles River UK and ENVIGO, respectively. They were allowed a minimum of 7 days acclimatisation prior to procedures. Animals were anaesthetised and proxymetacaine hydrochloride 0.5% w/v was applied to the corneas. For the rats, a 2 cm section of silicone tubing was placed on the cornea whereas for the rabbits the suction ring (as above) was placed on the cornea, and 200 μl of the sterile filtered 0.2 M BS^3 solution was instilled for 15 mins. Following this, eyes were rinsed with saline. Animals were provided with antibiotic/steroid drops (Tobradex, Novartis Pharmaceuticals UK Ltd, London, UK) daily and were monitored for any signs for distress or ocular discomfort.
(§3) Aqueous humour was collected. Rat ocular tissue was collected and fixed in 10% paraformaldehyde for histology. Rabbit the eyes enucleated and prepared for mechanical testing which was conducted the following day and the remaining cornea was fixed. Ocular tissue was also fixed in 10% paraformaldehyde.
Rabbit eyes were collected immediately after culling and were stored in a petri dish containing the PBS antibiotic/antimycotic solution, corneas facing up, at 4° C. overnight. Mechanical testing was conducted using the protocol above for ex vivo porcine tissue.
(§4) Statistical analyses were performed with Prism 9.3.1 (GraphPad Software, San Diego, CA, USA). In vivo data were compared by paired t-tests to contralateral control eyes.

ex vivo porcine corneas = assay: Ex vivo tensile testing of cross-linked porcine corneas (elastic modulus); parameters: species or system domestic pig (Sus domesticus)
Method: Eyes of the domestic pig (Sus domesticus) are collected from a local abattoir 0-4 hours post-mortem. Eyes are cleaned of excess tissue and fat and washed in PBS containing 200 U penicillin and 0.2 mg/ml streptomycin and 5 μg/ml amphotericin B (Merch Life Science, Dorset, UK). The eyes are stored in a petri dish containing the PBS antibiotic/antimycotic solution, corneas facing up, at 4° C. overnight.
The porcine eyes are removed from 4° C. and allowed to warm to room temperature. One-to-two drops of Minims Proxymetacaine hydrochloride 0.5% w/v (Bosch & Lomb, Surrey, UK) were applied to the cornea for 15 minutes, with additional drops added ever 5 minutes and then 2-3 minutes before treatment. After which a suction ring (E.Janach, Como, Italy) was attached to the cornea (FIG. 1) and 200 μl of BS^3 solution was added inside the ring. Eyes were incubated for 5, 15 or 30 mins at 37° C.; after which the BS^3 solution was aspirated and retained for pH measurement, and eyes were rinsed in PBS then stored, cornea facing down, in a 6-well plate with fresh PBS until tensile measurement.
Suction rings were applied to porcine corneas as in FIG. 1 and 18% ethanol solution was applied for 30 seconds before being adsorbed by a sponge spear. The cornea was then rinsed with PBS. After this the epithelium was removed with a corneal scraper and sponge spear. Once the epithelium was removed 0.1% riboflavin (Vibex Rapid™, Avedro Inc, MA, USA) was applied every 3 mins. Riboflavin was applied for a total of 30 mins for the Dresden protocol and 15 minutes for the Accelerated protocol.
After riboflavin treatment eyes were cross-linked by UVA light using and KXL System (Avedro Inc). UV light was applied at 3 mW/cm^2 for 30 mins for the Dresden protocol and 6 mW/cm^2 for 15 mins for the Accelerated protocol for a total applied energy of 5.4 J/cm^2 for both protocols.
The anterior section of the eye was removed by cutting around the globe 5-10 mm posteriorly from the limbus. The iris and ciliary process were removed from the posterior section of the tissue leaving only sclera and cornea. A strip of tissue was cut using a custom-made replaceable razor blade jig. Tissue thickness and width (determined as the distance between cutting edges) were measured with calipers.
as §1
Ex vivo mechanical data were compared by One-way ANOVA and Tukey's post-hoc.

[2] = system: inflammatory cytokines in rat aqueous humour; settings: in vivo
Method: as §2
as §3, with “The animals were euthanised at pre-determined time points (rats at 24 hours and 7 days; rabbits at 3 days post-treatment). Aqueous” for “Aqueous”
as §4

[3] = Method: To investigate cross-linker stability 0.2 M BS^3 was prepared in various buffers. The pH was measured using a SevenGO SG2 pH meter with an InLab Ultra-Micro-ISM electrode (Mettler Toldedo, Leicester, UK). Nine carbonate buffer and two phosphate buffer formulations were investigated. All were prepared in deionised H2O. Formulations can be seen in Table 1 below. The pH of BS^3 at concentrations of 0.2 M and 0.035 M (20 mg/ml as per patent US2014/0271897 A1 claim [0358]) in phosphate buffered saline (PBS) were also measured. The pH was measured immediately after addition BS3 and filtration (00:00) then at 30 mins, 1 hour, 2 hours, 3 hours, 4 hours, 24 hours.
BS^3 (bis(sulfosuccinimidyl)suberate, Thermo Scientific Pierce, IL, USA) solutions was prepared to concentrations of 0.2 M in the buffer solution, vortexed for 1 min and then filtered through 0.2 μm filter.

rabbit corneas [4] = settings: in vivo
Method: as §2
(§5) The animals were euthanised at pre-determined time points (rats at 24 hours and 7 days; rabbits at 3 days post-treatment). Aqueous humour was collected. Rat ocular tissue was collected and fixed in 10% paraformaldehyde for histology. […]
(§6) Corneal thickness and transparency were determined using optical coherence tomography (OCT) (ENVISU R2210, Leica Microsystems, Milton Keynes, UK) before treatment and prior to euthanasia. Corneal transparency was determined by the intensity of the pixels within the cornea minus background intensity from the corneal sections of the OCT images. […]

rat corneas = settings: in vivo
Method: as §2, §5, §6

[5] = Dresden UV/riboflavin protocol, strain range 5-10%
[6] = Accelerated UV/Riboflavin protocol, strain range 5-10%

change in IL-2 in aqueous humour, treated vs control eyes [2]: −0.76 fold
change in IL-4 in aqueous humour, treated vs control eyes [2]: −0.63 fold
reductions in IL-2 and IL-4 in aqueous humour [2]: resolved by day 7
pH by 30 minutes ([3]; 20 mg/ml (0.035 M) BS^3 in PBS (Dulbecco A), formulation of US2014/0271897 A1 [0358]): 5.18
precipitation ([3]; 0.2 M BS^3 in 0.1 M and 0.2 M carbonate buffers, at 24 hours): Precipitation was observed
initial pH after the addition of 0.2 M BS^3 ([3]; 0.2 M BS^3 in 0.5 M carbonate buffers): > 7
pH over the 24 hour testing period ([3]; 0.2 M BS^3 in 0.5 M carbonate:bicarbonate buffer, ratio 5:5): > 6
precipitation ([3]; 0.2 M BS^3 in 0.5 M carbonate:bicarbonate buffer, ratio 5:5, 24 hour testing period): did not have any precipitation
pH over the 24 hour testing period ([3]; 0.2 M BS^3 in 0.5 M carbonate:bicarbonate buffer, ratio 9:1): > 6
precipitation ([3]; 0.2 M BS^3 in 0.5 M carbonate:bicarbonate buffer, ratio 9:1, 24 hour testing period): did not have any precipitation
reduction in corneal thickness in the treated eyes vs contralateral control (rabbit corneas [4]): 100±20 μm
reduction in corneal thickness in the treated eye vs contralateral control (rat corneas): 42±29 μm
Molecule: bis(sulfosuccinimidyl)suberate [BS3]
Percentage Change in Modulus After 3 Days Compared to Control (rabbit corneas [1]; strain range 5-10%): −6%
Percentage Change in Modulus After 3 Days Compared to Control (rabbit corneas [1]; strain range 10-15%): 15%
Percentage Change in Modulus After 3 Days Compared to Control (rabbit corneas [1]; strain range 15-20%): 43%
Percentage Change in Modulus After 3 Days Compared to Control (rabbit corneas [1]; strain range 20-25%): 104%
Percentage Change in Modulus Compared to Control (rabbit corneas [1]; strain range 5-10%): 22%
Percentage Change in Modulus Compared to Control (rabbit corneas [1]; strain range 10-15%): 29%
Percentage Change in Modulus Compared to Control (rabbit corneas [1]; strain range 15-20%): 28%
Percentage Change in Modulus Compared to Control (rabbit corneas [1]; strain range 20-25%): 38%
effect on stiffness of corneal tissue vs untreated control eye (rabbit corneas [1]; 3 days, lower strain ranges (5-10% & 10-15%)): No significant difference; also recorded: insignificant effect
effect on stiffness of corneal tissue vs untreated control eye (rabbit corneas [1]; 28 days, lowest and highest strain ranges): No significant difference
Percentage Change in Modulus Compared to Control (ex vivo porcine corneas; 20 mg/ml (0.035 M) BS3 in PBS (US2014/0271897 A1 [0358]), strain range 5-10%): −28%
Percentage Change in Modulus Compared to Control (ex vivo porcine corneas; 20 mg/ml (0.035 M) BS3 in PBS (US2014/0271897 A1 [0358]), strain range 10-15%): −10%
Percentage Change in Modulus Compared to Control (ex vivo porcine corneas; 20 mg/ml (0.035 M) BS3 in PBS (US2014/0271897 A1 [0358]), strain range 20-25%): 3%
Percentage Change in Modulus Compared to Control (ex vivo porcine corneas; 20 mg/ml (0.035 M) BS3 in PBS (US2014/0271897 A1 [0358]), strain range 30-35%): 15%
difference in elastic modulus compared to control (ex vivo porcine corneas; 20 mg/ml (0.035 M) BS^3 in PBS, any of the strain ranges, p>0.05): no significant difference
Percentage Change in Modulus Compared to Control (ex vivo porcine corneas; 0.2M BS3, 5 min treatment, strain range 5-10%): 76%
Percentage Change in Modulus Compared to Control (ex vivo porcine corneas; 0.2M BS3, 5 min treatment, strain range 10-15%): 60%
Percentage Change in Modulus Compared to Control (ex vivo porcine corneas; 0.2M BS3, 5 min treatment, strain range 20-25%): 42%
Percentage Change in Modulus Compared to Control (ex vivo porcine corneas; 0.2M BS3, 5 min treatment, strain range 30-35%): 12%
Percentage Change in Modulus Compared to Control (ex vivo porcine corneas; 0.2M BS3, 15 min treatment, strain range 5-10%): 109%
Percentage Change in Modulus Compared to Control (ex vivo porcine corneas; 0.2M BS3, 15 min treatment, strain range 5-10%, listed as BS^3): 109%
Percentage Change in Modulus Compared to Control (ex vivo porcine corneas; 0.2M BS3, 15 min treatment, strain range 10-15%): 68%
Percentage Change in Modulus Compared to Control (ex vivo porcine corneas; 0.2M BS3, 15 min treatment, strain range 10-15%, listed as BS^3): 68%
Percentage Change in Modulus Compared to Control (ex vivo porcine corneas; 0.2M BS3, 15 min treatment, strain range 20-25%): 43%
Percentage Change in Modulus Compared to Control (ex vivo porcine corneas; 0.2M BS3, 15 min treatment, strain range 30-35%): 18%
Percentage Change in Modulus Compared to Control (ex vivo porcine corneas; 0.2M BS3, 15 min treatment, strain range 30-35%, listed as BS^3): 18%
Percentage Change in Modulus Compared to Control (ex vivo porcine corneas; 0.2M BS3, 30 min treatment, strain range 5-10%): 56%
Percentage Change in Modulus Compared to Control (ex vivo porcine corneas; 0.2M BS3, 30 min treatment, strain range 10-15%): 54%
Percentage Change in Modulus Compared to Control (ex vivo porcine corneas; 0.2M BS3, 30 min treatment, strain range 20-25%): 45%
Percentage Change in Modulus Compared to Control (ex vivo porcine corneas; 0.2M BS3, 30 min treatment, strain range 30-35%): 22%
stiffness (elastic modulus) (ex vivo porcine corneas; 0.2 M BS^3 in 0.5 M carbonate:bicarbonate 9:1, 5 min treatment, strain range 5-10%): 5.43±2.23 MPa
stiffness (elastic modulus) (ex vivo porcine corneas; 0.2 M BS^3 in 0.5 M carbonate:bicarbonate 9:1, 15 min treatment, strain range 5-10%): 6.47±2.23 MPa
stiffness (elastic modulus) (ex vivo porcine corneas; 0.2 M BS^3 in 0.5 M carbonate:bicarbonate 9:1, 30 min treatment, strain range 5-10%): 4.84±2.02 MPa

Molecule: Cc1cc2nc3c(=O)[nH]c(=O)nc-3n(C[C@H](O)[C@H](O)[C@H](O)CO)c2cc1C [Dresden, riboflavin, reference compound]
Percentage Change in Modulus Compared to Control (ex vivo porcine corneas; [5]): 158%
elastic modulus (ex vivo porcine corneas; [5]): 7.99±4.58 MPa
Percentage Change in Modulus Compared to Control (ex vivo porcine corneas; Dresden UV/riboflavin protocol, strain range 10-15%): 123% and 124%
Percentage Change in Modulus Compared to Control (ex vivo porcine corneas; Dresden UV/riboflavin protocol, strain range 20-25%): 62%
Percentage Change in Modulus Compared to Control (ex vivo porcine corneas; Dresden UV/riboflavin protocol, strain range 30-35%): 34%

Molecule: Cc1cc2nc3c(=O)[nH]c(=O)nc-3n(C[C@H](O)[C@H](O)[C@H](O)CO)c2cc1C [Accelerated, riboflavin, reference compound]
Percentage Change in Modulus Compared to Control (ex vivo porcine corneas; [6]): 79%
difference in elastic modulus compared to control (ex vivo porcine corneas; [6]): not significantly different
elastic modulus (ex vivo porcine corneas; [6]): 5.45±2.97 MPa
Percentage Change in Modulus Compared to Control (ex vivo porcine corneas; Accelerated UV/riboflavin protocol, strain range 10-15%): 46%
Percentage Change in Modulus Compared to Control (ex vivo porcine corneas; Accelerated UV/riboflavin protocol, strain range 20-25%): 28%
Percentage Change in Modulus Compared to Control (ex vivo porcine corneas; Accelerated UV/riboflavin protocol, strain range 30-35%): 16%
